Data published in US8497281B2, “Aryl- and heteroarylcarbonyl derivatives of hexahydroindenopyridine and octahydrobenzoquinoline” (Vitae Pharmaceuticals, Inc., priority 2009, dated 2013).

Experiment: Metabolic stability in pooled liver microsomes
Assay type: in vitro ADME, human
Details: human liver microsomes, 37° C., test compound 1 μM, microsomal protein 0.5 mg/mL, NADPH 1 mM
Method: The metabolic degradation of the test compound is assayed at 37° C. with pooled liver microsomes from various species. The final incubation volume of 100 μl per time point contains TRIS buffer pH 7.6 at room temperature (0.1 M), magnesium chloride (5 mM), microsomal protein (0.5 mg/mL) and the test compound at a final concentration of 1 μM. Following a short preincubation period at 37° C., the reactions are initiated by addition of beta-nicotinamide adenine dinucleotide phosphate, reduced form (NADPH, 1 mM), and terminated by transferring an aliquot into solvent after different time points. After centrifugation (10000 g, 5 min), an aliquot of the supernatant is assayed by LC-MS/MS for the amount of parent compound. The half-life is determined by the slope of the semi-logarithmic plot of the concentration-time profile.

Stability in human liver microsomes, t1/2 | SMILES
29 min | O=C(c1ccc2[nH]cnc2c1)N1CCC[C@@H]2c3ccccc3CC[C@@H]21 [Example 2, (1H-Benzoimidazol-5-yl)-[(4a-S,10b-R)-2,3,4a,5,6,10b-hexahydro-1H-benzo[l]quinolin-4-yl]-methanone]
>90 min | O=C(c1ccc2[nH]cnc2c1)N1CCC[C@@H]2c3ccccc3CC[C@@H]21 (relative stereo) [Example 1, (1H-Benzoimidazol-5-yl)-(cis-2,3,4a,5,6,10b-hexahydro-1H-benzo[f]quinolin-4-yl)-methanone]

Same assay, conditions: human, pooled liver microsomes, pH 7.6, human liver microsomes, 37° C., test compound 1 μM, microsomal protein 0.5 mg/mL, NADPH 1 mM; read-out: Stability in human liver microsomes, t1/2

SMILES | half-life at 1 μM
O=C(c1ccc2[nH]cnc2c1)N1CCC[C@@H]2c3ccccc3C[C@@H]21 (relative stereo) [Example 93, (1H-Benzoimidazol-5-yl)-(cis-2,3,4,4a,9,9a-hexahydro-indeno[2,1-b]pyridin-1-yl)-methanone] | > 90 min
N#Cc1ccc2c(c1)CC[C@H]1[C@@H]2CCCN1C(=O)c1ccc2[nH]cnc2c1 (relative stereo) [Example 42, cis-4-(1H-Benzoimidazole-5-carbonyl)-1,2,3,4,4a,5,6,10b-octahydro-benzo[f]quinoline-8-carbonitrile] | > 90 min
N#Cc1ccc2c(c1)[C@H]1CCCN(C(=O)c3ccc4[nH]cnc4c3)[C@H]1C2 (relative stereo) [Example 106, cis-1-(1H-Benzoimidazole-5-carbonyl)-2,3,4,4a,9,9a-hexahydro-1H-indeno[2,1-b]pyridine-6-carbonitrile] | > 90 min
NC(=O)c1ccc2c(c1)CC[C@H]1[C@@H]2CCCN1C(=O)c1ccc2[nH]cnc2c1 (relative stereo) [Example 37, cis-4-(1H-Benzoimidazole-5-carbonyl)-1,2,3,4,4a,5,6,10b-octahydro-benzo[f]quinoline-8-carboxylic acid amide] | > 90 min
C#Cc1ccc2c(c1)[C@H]1CCCN(C(=O)c3ccc4[nH]cnc4c3)[C@H]1C2 (relative stereo) [Example 155, (1H-Benzoimidazol-5-yl)-(cis-6-ethynyl-2,3,4,4a,9,9a-hexahydro-indeno[2,1-b]pyridin-1-yl)-methanone] | 28 min
Cc1cc2[nH]cnc2cc1C(=O)N1CCC[C@@H]2c3cc(C#N)ccc3C[C@@H]21 [Example 153, (4a-R,9a-S)-1-(6-Methyl-1H-benzoimidazole-5-carbonyl)-2,3,4,4a,9,9a-hexahydro-1H-indeno[2,1-b]pyridine-6-carbonitrile] | > 90 min

More lines, now with the values ahead:

half-life at 1 μM | SMILES
> 45 min | C[C@]12CCCN(C(=O)c3ccc4[nH]cnc4c3)[C@H]1CCc1ccccc12 (relative stereo) [Example 10, (1H-Benzoimidazol-5-yl)-(cis-10b-methyl-2,3,4a,5,6,10b-hexahydro-1H-benzo[f]quinolin-4-yl)-methanone]
> 90 min | N#Cc1ccc2c(c1)C[C@H]1[C@@H]2CCCN1C(=O)c1ccc2[nH]cnc2c1 [Example 148, (4a-R,9a-S)-1-(1H-Benzoimidazole-5-carbonyl)-2,3,4,4a,9,9a-hexahydro-1H-indeno[2,1-b]pyridine-7-carbonitrile]
> 90 min | N#Cc1ccc2c(c1)[C@@H]1CCCN(C(=O)c3ccc4[nH]cnc4c3)[C@@H]1C2 [Example 108, (4a-S,9a-R)-1-(1H-Benzoimidazole-5-carbonyl)-2,3,4,4a,9,9a-hexahydro-1H-indeno[2,1-b]pyridine-6-carbonitrile]
> 90 min | N#Cc1ccc2c(c1)[C@H]1CCCN(C(=O)c3ccc4[nH]cnc4c3)[C@H]1CC2 (relative stereo) [Example 91, cis-4-(1H-Benzoimidazole-5-carbonyl)-1,2,3,4,4a,5,6,10b-octahydro-benzo[f]quinoline-9-carbonitrile]
> 45 min | C[C@H]1CCN(C(=O)c2ccc3[nH]cnc3c2)[C@H]2Cc3ccccc3[C@@H]12 [Example 146, (1H-Benzoimidazol-5-yl)-(cis-4-methyl-2,3,4,4a,9,9a-hexahydro-indeno[2,1-b]pyridin-1-yl)-methanone]
> 90 min | N#Cc1ccc2c(c1)[C@H]1CCCN(C(=O)c3ccc4[nH]cnc4c3)[C@H]1C2 [Example 107, (4a-R,9a-S)-1-(1H-Benzoimidazole-5-carbonyl)-2,3,4,4a,9,9a-hexahydro-1H-indeno[2,1-b]pyridine-6-carbonitrile]
> 90 min | Cc1cc(C(=O)N2CCC[C@@H]3c4cc(C#N)ccc4C[C@@H]32)cc2nc[nH]c12 [Example 152, (4a-R,9a-S)-1-(7-Methyl-1H-benzoimidazole-5-carbonyl)-2,3,4,4a,9,9a-hexahydro-1H-indeno[2,1-b]pyridine-6-carbonitrile]
38 min | C[C@]12CCCN(C(=O)c3ccc4[nH]cnc4c3)[C@@H]1CCc1ccccc12 (relative stereo) [Example 11, (1H-Benzoimidazol-5-yl)-(trans-10b-methyl-2,3,4a,5,6,10b-hexahydro-1H-benzo[t]quinolin-4-yl)-methanone]
22 min | CC[C@]12CCCN(C(=O)c3ccc4[nH]cnc4c3)[C@@H]1CCc1ccccc12 (relative stereo) [Example 105, (1H-Benzoimidazol-5-yl)-(trans-10b-ethyl-2,3,4a,5,6,10b-hexahydro-1H-benzo[f]quinolin-4-yl)-methanone]
> 90 min | O=C(c1ccc2[nH]cnc2c1)N1CCC[C@@H]2c3cc(F)cc(F)c3CC[C@@H]21 (relative stereo) [Example 20, (1H-Benzoimidazol-5-yl)-(cis-7,9-difluoro-2,3,4a,5,6,10b-hexahydro-1H-benzo[f]quinolin-4-yl)-methanone]
